Patent US9534016B2, “Netrin loop peptide mimetics and uses thereof” (Buck Institute for Research on Aging, priority 2011, dated 2017)

System: ERK phosphorylation associated with APP based cell signaling
Test: ERK phosphorylation, Western blot, B103 cells co-transfected with APP
Description: This effect is not seen with cyclic peptide-2 or cyclic peptide-3. […] Cyclic peptide-1 is APP specific
ERK phosphorylation is associated with cell signaling. […] This assay was based on a western blot analysis.

## C-P-H-F-C [cyclic peptide-2]
Western blot, APP cells (B103 co-transfected with APP), cyclic peptide-1 at 21 uM
  ERK phosphorylation: not seen
Cyclized loop peptides prepared and tested
  modulate ERK phosphorylation and/or switch APP processing from aberrant to normal: shown to modulate ERK phosphorylation and/or to switch APP processing from aberrant to normal
